Broadly, the IC50 is the midpoint of a concentration-inhibition curve.

HDM2 protein, sequence (Q00987 whole entry): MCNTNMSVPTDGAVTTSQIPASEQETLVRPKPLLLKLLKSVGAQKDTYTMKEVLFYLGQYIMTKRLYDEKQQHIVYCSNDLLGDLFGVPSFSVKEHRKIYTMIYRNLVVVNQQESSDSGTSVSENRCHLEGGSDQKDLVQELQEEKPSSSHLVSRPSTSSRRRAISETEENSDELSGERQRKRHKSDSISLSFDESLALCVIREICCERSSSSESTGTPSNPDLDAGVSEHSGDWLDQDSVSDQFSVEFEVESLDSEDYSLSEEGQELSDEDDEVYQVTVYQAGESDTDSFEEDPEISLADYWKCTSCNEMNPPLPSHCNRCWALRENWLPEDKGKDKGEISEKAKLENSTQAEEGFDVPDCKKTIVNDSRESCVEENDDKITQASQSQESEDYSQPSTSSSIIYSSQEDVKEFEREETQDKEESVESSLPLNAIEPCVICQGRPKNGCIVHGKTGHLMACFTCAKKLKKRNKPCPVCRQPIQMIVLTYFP

This assay concerns the target HDM2 protein (Homo sapiens, UniProt Q00987). Description: fluorescence polarization screening assay (FP IC50). The format is binding. As to conditions: class symbols. The procedure: The compounds were evaluated to determine activity at the HDM2 protein by known methods such as the fluorescence polarization screening assay that measures the inhibitory concentration that achieves 50% of maximal activity (FP IC50) and the dissociation constant for inhibitor binding (FP Ki). [Zhang et al., J. Analytical Biochemistry 331: 138-146 (2004)].
On to `CCC[C@H]1N(C(=O)c2ncccc2C(F)(F)F)CCC[C@@]1(Oc1csc(C(F)(F)F)c1)C(=O)N1CCc2sc(Cl)cc2C1CCCN1CCCC1` (stereo partly drawn) [Compound A33, 2-chloro-5-{[(2R,3S)-2-propyl-1-{[3-(trifluoromethyl)pyridin-2-yl]carbonyl}-3-{[5-(trifluoromethyl)thiophen-3-yl]oxy}piperidin-3-yl]carbonyl}-4-(3-pyrrolidin-1-ylpropyl)-4,5,6,7-tetrahydrothieno[3,2-c]pyridine], for which the IC50 fell in the range of 101 to 20000 nM. Next, `CCC[C@H]1N(C(=O)c2ncccc2C(F)(F)F)CCC[C@@]1(Oc1csc(C(F)(F)F)c1)C(=O)N1CCc2sc(Cl)cc2C1C(=O)NC` (stereo partly drawn) [Compound A34, 2-chloro-N-methyl-5-{[(2R,3S)-2-propyl-1-{[3-(trifluoromethyl)pyridin-2-yl]carbonyl}-3-{[5-(trifluoromethyl)thiophen-3-yl]oxy}piperidin-3-yl]carbonyl}-4,5,6,7-tetrahydrothieno[3,2-c]pyridine-4-carboxamide]: 101 to 20000 nM; `CCC[C@H]1N(C(=O)c2ncccc2C(F)(F)F)CCC[C@@]1(Oc1csc(C(F)(F)F)c1)C(=O)N1CCc2sc(Cl)cc2C1CN1CCCC1` (stereo partly drawn) [Compound A35, 2-chloro-5-{[(2R,3S)-2-propyl-1-{[3-(trifluoromethyl)pyridin-2-yl]carbonyl}-3-{[5-(trifluoromethyl)thiophen-3-yl]oxy}piperidin-3-yl]carbonyl}-4-(pyrrolidin-1-ylmethyl)-4,5,6,7-tetrahydrothieno[3,2-c]pyridine]: 101 to 20000 nM; `CCC[C@H]1N(C(=O)c2ncccc2C(F)(F)F)CCC[C@@]1(Oc1csc(C(F)(F)F)c1)C(=O)N1CCc2sc(Cl)cc2C1CCC(=O)NS(C)(=O)=O` (stereo partly drawn) [Compound A36, 3-(2-chloro-5-{[(2R,3S)-2-propyl-1-{[3-(trifluoromethyl)pyridin-2-yl]carbonyl}-3-{[5-(trifluoromethyl)thiophen-3-yl]oxy}piperidin-3-yl]carbonyl}-4,5,6,7-tetrahydrothieno[3,2-c]pyridin-4-yl)-N-(methylsulfonyl) propanamide]: 1 to 100 nM. Next, `CCC[C@H]1N(C(=O)c2ncccc2C(F)(F)F)CCC[C@@]1(Oc1csc(C(F)(F)F)c1)C(=O)N1CCc2sc(Cl)cc2C1CCC(=O)NS(C)(=O)=O` (stereo partly drawn) [Compound A37, 3-(2-chloro-5-{[(2R,3S)-2-propyl-1-{[3-(trifluoromethyl)pyridin-2-yl]carbonyl}-3-{[5-(trifluoromethyl)thiophen-3-yl]oxy}piperidin-3-yl]carbonyl}-4,5,6,7-tetrahydrothieno[3,2-c]pyridin-4-yl)-N-(methylsulfonyl) propanamide]: 1 to 100 nM; `CCC[C@H]1N(C(=O)c2ncccc2C(F)(F)F)CCC[C@@]1(Oc1csc(C(F)(F)F)c1)C(=O)N1Cc2ccc(Cl)cc2C[C@@H]1COCC(=O)O` [Compound A38, {[(3R)-6-chloro-2-{[(2R,3S)-2-propyl-1-{[3-(trifluoromethyl)pyridin-2-yl]carbonyl}-3-{[5-(trifluoromethyl)thiophen-3-yl]oxy}piperidin-3-yl]carbonyl}-1,2,3,4-tetrahydroisoquinolin-3-yl]methoxy}acetic acid]: 1 to 100 nM. Next, `CCC[C@H]1N(C(=O)c2ncccc2C(F)(F)F)CCC[C@@]1(Oc1csc(C(F)(F)F)c1)C(=O)N1CCc2cc(F)ccc2C1CCC(=O)O` (stereo partly drawn) [Compound A39, 3-(6-fluoro-2-{[(2R,3S)-2-propyl-1-{[3-(trifluoromethyl)pyridin-2-yl]carbonyl}-3-{[5-(trifluoromethyl)thiophen-3-yl]oxy}piperidin-3-yl]carbonyl}-1,2,3,4-tetrahydroisoquinolin-1-yl)propanoic acid]: 1 to 100 nM; `CCC[C@H]1N(C(=O)c2ncccc2C(F)(F)F)CCC[C@@]1(Oc1csc(C(F)(F)F)c1)C(=O)N1CCc2cc(F)ccc2C1CCCCC(=O)O` (stereo partly drawn) [Compound A40, 5-(6-fluoro-2-{[(2R,3S)-2-propyl-1-{[3-(trifluoromethyl)pyridin-2-yl]carbonyl}-3-{[5-(trifluoromethyl)thiophen-3-yl]oxy}piperidin-3-yl]carbonyl}-1,2,3,4-tetrahydroisoquinolin-1-yl)pentanoic acid]: 1 to 100 nM; `CCC[C@H]1N(C(=O)c2ncccc2C(F)(F)F)CCC[C@@]1(Oc1csc(C(F)(F)F)c1)C(=O)N1CCc2cc(F)ccc2C1CCCCC(=O)O` (stereo partly drawn) [Compound A41, 5-(6-fluoro-2-{[(2R,3S)-2-propyl-1-{[3-(trifluoromethyl)pyridin-2-yl]carbonyl}-3-{[5-(trifluoromethyl)thiophen-3-yl]oxy}piperidin-3-yl]carbonyl}-1,2,3,4-tetrahydroisoquinolin-1-yl)pentanoic acid]: 1 to 100 nM.

`CCC[C@H]1N(C(=O)c2ncccc2C(F)(F)F)CCC[C@@]1(Oc1csc(C(F)(F)F)c1)C(=O)N1CCc2cc(F)ccc2C1CCC(=O)O` (stereo partly drawn) [Compound A42, 3-(6-fluoro-2-{[(2R,3S)-2-propyl-1-{[3-(trifluoromethyl)pyridin-2-yl]carbonyl}-3-{[5-(trifluoromethyl)thiophen-3-yl]oxy}piperidin-3-yl]carbonyl}-1,2,3,4-tetrahydroisoquinolin-1-yl)propanoic acid] showed an IC50 of 1 to 100 nM. Next, `CCC[C@H]1N(C(=O)c2ncccc2C(F)(F)F)CCC[C@@]1(Oc1csc(C(F)(F)F)c1)C(=O)N1CCc2cc(F)ccc2C1CCCCC(=O)O` (stereo partly drawn) [Compound A43, 5-(6-fluoro-2-{[(2R,3S)-2-propyl-1-{[3-(trifluoromethyl)pyridin-2-yl]carbonyl}-3-{[5-(trifluoromethyl)thiophen-3-yl]oxy}piperidin-3-yl]carbonyl}-1,2,3,4-tetrahydroisoquinolin-1-yl)pentanoic acid]: 1 to 100 nM.

Consider `CCC[C@H]1N(C(=O)c2ncccc2C(F)(F)F)CCC[C@@]1(Oc1csc(C(F)(F)F)c1)C(=O)N1CCc2cc(F)ccc2C1CCC(=O)O` (stereo partly drawn) [Compound A44, 3-(6-fluoro-2-{[(2R,3S)-2-propyl-1-{[3-(trifluoromethyl)pyridin-2-yl]carbonyl}-3-{[5-(trifluoromethyl)thiophen-3-yl]oxy}piperidin-3-yl]carbonyl}-1,2,3,4-tetrahydroisoquinolin-1-yl)propanoic acid], for which the IC50 was in the range of 1 to 100 nM. Regarding `CCC[C@H]1N(C(=O)c2ncccc2C(F)(F)F)CCC[C@@]1(Oc1csc(C(F)(F)F)c1)C(=O)N1CCc2cc(Cl)ccc2[C@H]1CCC(=O)O` [Compound A45, 3-[(1R)-6-chloro-2-{[(2R,3S)-2-propyl-1-{[3-(trifluoromethyl)pyridin-2-yl]carbonyl}-3-{[5-(trifluoromethyl)thiophen-3-yl]oxy}piperidin-3-yl]carbonyl}-1,2,3,4-tetrahydroisoquinolin-1-yl]propanoic acid], the IC50 lay in the range of 1 to 100 nM.

In turn, `CCC[C@H]1N(C(=O)c2ncccc2C(F)(F)F)CCC[C@@]1(Oc1csc(C(F)(F)F)c1)C(=O)N1CCc2cc(C#N)ccc2C1` [Compound A46] showed a 50% inhibitory concentration (IC50) of 101 to 20000 nM. Next, `CCC[C@H]1N(C(=O)c2ncccc2C(F)(F)F)CCC[C@@]1(Oc1csc(C(F)(F)F)c1)C(=O)N1CCc2cc(OC)ccc2C1` [Compound A47, 6-methoxy-2-{[(2R,3S)-2-propyl-1-{[3-(trifluoromethyl)pyridin-2-yl]carbonyl}-3-{[5-(trifluoromethyl)thiophen-3-yl]oxy}piperidin-3-yl]carbonyl}-1,2,3,4-tetrahydroisoquinoline]: 101 to 20000 nM. Next, `CCC[C@H]1N(C(=O)c2ncccc2C(F)(F)F)CCC[C@@]1(Oc1csc(C(F)(F)F)c1)C(=O)N1CCc2cc(F)ccc2C1` [Compound A48, 6-fluoro-2-{[(2R,3S)-2-propyl-1-{[3-(trifluoromethyl)pyridin-2-yl]carbonyl}-3-{[5-(trifluoromethyl)thiophen-3-yl]oxy}piperidin-3-yl]carbonyl}-1,2,3,4-tetrahydroisoquinoline]: 101 to 20000 nM. For `CCC[C@H]1N(C(=O)c2ncccc2C(F)(F)F)CCC[C@@]1(Oc1csc(C(F)(F)F)c1)C(=O)N1CCc2cc(Cl)ccc2C1` [Compound A49, 6-chloro-2-{[(2R,3S)-2-propyl-1-{[3-(trifluoromethyl)pyridin-2-yl]carbonyl}-3-{[5-(trifluoromethyl)thiophen-3-yl]oxy}piperidin-3-yl]carbonyl}-1,2,3,4-tetrahydroisoquinoline], the IC50 was in the range of 1 to 100 nM. Regarding `CCC[C@H]1N(C(=O)c2ncccc2C(F)(F)F)CCC[C@@]1(Oc1csc(C(F)(F)F)c1)C(=O)N1CCc2cc(Br)ccc2C1` [Compound A50, 6-bromo-2-{[(2R,3S)-2-propyl-1-{[3-(trifluoromethyl)pyridin-2-yl]carbonyl}-3-{[5-(trifluoromethyl)thiophen-3-yl]oxy}piperidin-3-yl]carbonyl}-1,2,3,4-tetrahydroisoquinoline], the IC50 fell in the range of 1 to 100 nM. Next, `CCC[C@H]1N(C(=O)c2ncccc2C(F)(F)F)CCC[C@@]1(Oc1csc(C(F)(F)F)c1)C(=O)N1CCc2cc(F)ccc2C1CCCO` (stereo partly drawn) [Compound A51, 3-(6-fluoro-2-{[(2R,3S)-2-propyl-1-{[3-(trifluoromethyl)pyridin-2-yl]carbonyl}-3-{[5-(trifluoromethyl)thiophen-3-yl]oxy}piperidin-3-yl]carbonyl}-1,2,3,4-tetrahydroisoquinolin-1-yl)propan-1-ol]: 1 to 100 nM; `CCC[C@H]1N(C(=O)c2ncccc2C(F)(F)F)CCC[C@@]1(Oc1csc(C(F)(F)F)c1)C(=O)N1CCc2cc(F)ccc2C1CC(=O)O` (stereo partly drawn) [Compound A52, (6-fluoro-2-{[(2R,3S)-2-propyl-1-{[3-(trifluoromethyl)pyridin-2-yl]carbonyl}-3-{[5-(trifluoromethyl)thiophen-3-yl]oxy}piperidin-3-yl]carbonyl}-1,2,3,4-. tetrahydroisoquinolin-1-yl)acetic acid]: 1 to 100 nM. Turning to `CCC[C@H]1N(C(=O)c2ncccc2C(F)(F)F)CCC[C@@]1(Oc1csc(C(F)(F)F)c1)C(=O)N1CCc2cc(Cl)ccc2C1CC(=O)O` (stereo partly drawn) [Compound A53, (6-chloro-2-{[(2R,3S)-2-propyl-1-{[3-(trifluoromethyl)pyridin-2-yl]carbonyl}-3-{[5-(trifluoromethyl)thiophen-3-yl]oxy}piperidin-3-yl]carbonyl}-1,2,3,4-. tetrahydroisoquinolin-1-yl)acetic acid], the IC50 lay within 1 to 100 nM.

The values are drawn from patent publication US9062071B2, “Substituted piperidines as HDM2 inhibitors” (Merck Sharp & Dohme Corp, priority 2011, dated 2015).
